Test results taken from PubChem BioAssay (NCI).
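Compound exposure: 48 hours, 5 concentrations, 96-well plates. GI50 marks 50% less growth. TGI marks complete inhibition of growth.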

Columns and labels:
Experiment in all cases: NCI-60 cell line screen, 48 h
SNB-19 CNS = test system: SNB-19 CNS
M14 melanoma = test system: M14 melanoma
A498 renal = test system: A498 renal
K-562 leukemia = test system: K-562 leukemia
SK-MEL-2 melanoma = test system: SK-MEL-2 melanoma
UACC-62 melanoma = test system: UACC-62 melanoma
NCI-H226 lung = test system: NCI-H226 lung
HT29 colon = test system: HT29 colon
OVCAR-5 ovarian = test system: OVCAR-5 ovarian
UACC-257 melanoma = test system: UACC-257 melanoma
SF-539 CNS = test system: SF-539 CNS
IGROV1 ovarian = test system: IGROV1 ovarian
UO-31 renal = test system: UO-31 renal
SK-OV-3 ovarian = test system: SK-OV-3 ovarian
KM12 colon = test system: KM12 colon
SK-MEL-28 melanoma = test system: SK-MEL-28 melanoma
SK-MEL-5 melanoma = test system: SK-MEL-5 melanoma
EKVX NSCLC = test system: EKVX NSCLC
COLO 205 colon = test system: COLO 205 colon
NCI-H522 lung = test system: NCI-H522 lung
NCI-H23 lung = test system: NCI-H23 lung
DU-145 prostate = test system: DU-145 prostate
HL-60(TB) leukemia = test system: HL-60(TB) leukemia
SW-620 colon = test system: SW-620 colon
SF-295 CNS = test system: SF-295 CNS
ACHN renal = test system: ACHN renal
T-47D breast = test system: T-47D breast
MDA-MB-435 = test system: MDA-MB-435
TK-10 renal = test system: TK-10 renal
MDA-MB-231 breast = test system: MDA-MB-231 breast
NCI/ADR-RES ovarian = test system: NCI/ADR-RES ovarian
SN12C renal = test system: SN12C renal
LOX IMVI melanoma = test system: LOX IMVI melanoma
A549 NSCLC = test system: A549 NSCLC
OVCAR-4 ovarian = test system: OVCAR-4 ovarian
SNB-75 CNS = test system: SNB-75 CNS
HOP-62 NSCLC = test system: HOP-62 NSCLC
CCRF-CEM leukemia = test system: CCRF-CEM leukemia
HCT-15 colon = test system: HCT-15 colon
MALME-3M melanoma = test system: MALME-3M melanoma
HCT-116 colon = test system: HCT-116 colon
OVCAR-3 ovarian = test system: OVCAR-3 ovarian
PC-3 prostate = test system: PC-3 prostate
786-0 renal = test system: 786-0 renal
HCC-2998 colon = test system: HCC-2998 colon
SR leukemia = test system: SR leukemia
CAKI-1 renal = test system: CAKI-1 renal
SF-268 CNS = test system: SF-268 CNS
HS 578T breast = test system: HS 578T breast
BT-549 breast = test system: BT-549 breast
U251 CNS = test system: U251 CNS
RXF 393 renal = test system: RXF 393 renal
NCI-H460 lung = test system: NCI-H460 lung
OVCAR-8 ovarian = test system: OVCAR-8 ovarian
RPMI-8226 leukemia = test system: RPMI-8226 leukemia
HOP-92 NSCLC = test system: HOP-92 NSCLC
MCF7 breast = test system: MCF7 breast

## CC1=C(CCC(C)N(C)Cc2ccc(OCCCN3CCCC3)cc2)C(C)(C)CCC1 (centres undefined)
SNB-19 CNS
  GI50: 3.61 µM
  TGI: 12 µM
M14 melanoma
  GI50: 1.75 µM
  TGI: 3.7 µM
A498 renal
  GI50: 10.4 µM
  TGI: 22.7 µM
K-562 leukemia
  GI50: 1.67 µM
  TGI: 4.06 µM
SK-MEL-2 melanoma
  GI50: 2.96 µM
  TGI: 7.49 µM
UACC-62 melanoma
  GI50: 2.11 µM
  TGI: 4.17 µM
NCI-H226 lung
  GI50: 18.8 µM
  TGI: 37.3 µM
HT29 colon
  GI50: 0.764 µM
  TGI: 6.94 µM
OVCAR-5 ovarian
  GI50: 3.2 µM
  TGI: 11.1 µM
UACC-257 melanoma
  GI50: 2.25 µM
  TGI: 4.12 µM
SF-539 CNS
  GI50: 1.66 µM
  TGI: 3.28 µM
IGROV1 ovarian
  GI50: 4.03 µM
  TGI: 16.6 µM
UO-31 renal
  GI50: 3.2 µM
  TGI: 13.3 µM
SK-OV-3 ovarian
  GI50: 11.4 µM
  TGI: 23.8 µM
KM12 colon
  GI50: 4.6 µM
  TGI: 17.7 µM
SK-MEL-28 melanoma
  GI50: 1.68 µM
  TGI: 3.5 µM
SK-MEL-5 melanoma
  GI50: 1.75 µM
  TGI: 3.15 µM
EKVX NSCLC
  GI50: 9.07 µM
  TGI: 23.2 µM
COLO 205 colon
  GI50: 1.56 µM
  TGI: 3.42 µM
NCI-H522 lung
  GI50: 2.33 µM
  TGI: 4.99 µM
NCI-H23 lung
  GI50: 10.4 µM
  TGI: 24.9 µM
DU-145 prostate
  GI50: 10.8 µM
  TGI: 23.4 µM
HL-60(TB) leukemia
  GI50: 3.87 µM
  TGI: 20.4 µM
SW-620 colon
  GI50: 3.01 µM
  TGI: 10.8 µM
SF-295 CNS
  GI50: 1.89 µM
  TGI: 4.09 µM
ACHN renal
  GI50: 3.29 µM
  TGI: 11.3 µM
T-47D breast
  GI50: 1.72 µM
  TGI: 4.97 µM
MDA-MB-435
  GI50: 1.43 µM
  TGI: 2.85 µM
TK-10 renal
  GI50: 12.5 µM
  TGI: 26.7 µM
MDA-MB-231 breast
  GI50: 1.89 µM
  TGI: 4.48 µM
NCI/ADR-RES ovarian
  GI50: 10.4 µM
  TGI: 25 µM
SN12C renal
  GI50: 11 µM
  TGI: 24.8 µM
LOX IMVI melanoma
  GI50: 1.66 µM
  TGI: 3.18 µM
A549 NSCLC
  GI50: 6.48 µM
  TGI: 20.5 µM
OVCAR-4 ovarian
  GI50: 7.76 µM
  TGI: 21.4 µM
SNB-75 CNS
  GI50: 1.58 µM
  TGI: 3.92 µM
HOP-62 NSCLC
  GI50: 3.54 µM
  TGI: 17.5 µM
CCRF-CEM leukemia
  GI50: 2.66 µM
  TGI: 11.6 µM
HCT-15 colon
  GI50: 1.42 µM
  TGI: 4.8 µM
MALME-3M melanoma
  GI50: 1.67 µM
  TGI: 3.23 µM
HCT-116 colon
  GI50: 2.82 µM
  TGI: 12.1 µM
OVCAR-3 ovarian
  GI50: 5.72 µM
  TGI: 19.3 µM
PC-3 prostate
  GI50: 3.28 µM
  TGI: 14.1 µM
786-0 renal
  GI50: 2.59 µM
  TGI: 11.7 µM
HCC-2998 colon
  GI50: 1.5 µM
  TGI: 4 µM
SR leukemia
  GI50: 0.744 µM
  TGI: 3.89 µM
CAKI-1 renal
  GI50: 11.3 µM
  TGI: 24.3 µM
SF-268 CNS
  GI50: 4.07 µM
  TGI: 17.5 µM
HS 578T breast
  GI50: 2.53 µM
  TGI: 9.73 µM
BT-549 breast
  GI50: 12.3 µM
  TGI: 27.1 µM
U251 CNS
  GI50: 2.46 µM
  TGI: 6.38 µM
RXF 393 renal
  GI50: 2.59 µM
  TGI: 10.2 µM
NCI-H460 lung
  GI50: 3.02 µM
  TGI: 8.81 µM
OVCAR-8 ovarian
  GI50: 5.75 µM
  TGI: 19.9 µM
RPMI-8226 leukemia
  GI50: 2.9 µM
  TGI: 8.65 µM
HOP-92 NSCLC
  GI50: 2.83 µM
  TGI: 13.1 µM
MCF7 breast
  GI50: 1.63 µM
  TGI: 3.65 µM
